In patent US20260364186A1, “Chemical Conjugates, Compositions, and Methods of Preparation and Use Thereof” (Transfection Holdings Limited, priority 2022, published 2026):
“Also recorded” adds a separate entry of the source.

How the values were obtained:
[1] = tested on: PBMCs / normal blood cells; assay: FACS uptake of BODIPY FL conjugates in PBMCs (Example 3); assay type: cell-based, human; settings: 135 nM
Method: (§1) FIG. 3A. Conjugate compounds coupled to BODIPY FL were tested for uptake using 135 nM each conjugate and 4.5 minute incubation with human lymphocytes, monocytes and neutrophils (from a healthy donor). Mean fluorescent intensities (MFI). 1,000 cells (lymphocytes), 500 cells (monocytes) and 250 cells (neutrophils) sorted by FACS. Bars represent mean±SD. Results represent a single experiment done in duplicate.
(§2) In addition to this, 25 mL of full blood was collected from a healthy donor in lithium-heparin vacutainer. Peripheral blood mononuclear cells (PBMCs) were collected after ficoll separation. PBMCs then were centrifuge at 400 g for 5 minutes. Supernatant was removed from the cells and resuspended with 20 mL of HBSS with a final concentration of 417,500 cells/mL. Then, 479 μL of cells suspension were poured into Eppendorf tube and 1000 μL of 200 nM drug solution in HBSS were added to afford 135 nM final drug concentration, incubated at 37 °C for 5 minutes. After incubation time, PBMCs were centrifuged at 400 g for 5 minutes. Supernatant was removed from the cells and pellet resuspended with 200 μL of HBSS. Suspension was transferred to 96 well-plate and run on FACS machine, approximately 1,000-250 cells analysed. The FACS results output represented the mean of the fluorescence intensities (in arbitrary units) measured for cells sorted in every sample.

[2] = tested on: mouse embryonic fibroblasts MEF; assay: FACS uptake of BODIPY FL conjugates (Example 4); assay type: cell-based; settings: 200 nM, 5 min
Method: FIG. 4B: Conjugate compounds coupled to BODIPY FL were tested for uptake using 200 nM each conjugate and 5 minute incubation with mouse embryonic fibroblasts MEF. Mean fluorescent intensities (MFI). 1,000 cells were sorted by FACS.
Fibroblasts are ubiquitous mesenchymal cells that are thought to play important roles in wound repair and healing, and serve as reservoirs of multipotent progenitors capable of repopulating depleted cell compartments. Primary mouse embryonic fibroblast (MEF) cultures consist of highly heterogeneous populations of distinct cell types. Singhal, P. K., et al., 2016. MEF cells have a limited growth capacity and on prolonged passaging spontaneously immortalize at a low frequency. In contrast to transformation of primary MEF cells that requires the presence of two cooperating oncogenes, immortalised MEF cells can be transformed by a single oncogene (Ras) resulting in a loss of contact inhibition, anchorage-independent growth, and tumour formation in nude mice. Studies of MEF cells have played an important role in the elucidation of the molecular mechanisms underlying cellular immortalization, transformation, and tumorigenesis. Additionally, utilization of MEF cells disrupted for specific genes has provided a powerful tool to analyse the genetic regulation of these cellular processes. Sun and Taneja, 2007. […]

[3] = tested on: monocytes; assay: FACS uptake of BODIPY FL conjugates in PBMCs (Example 3); assay type: cell-based, human; settings: 135 nM
Method: as §1, §2

[4] = tested on: neutrophils; assay: as above; assay type: cell-based, human; settings: 135 nM
Method: as §1, §2

SMILES | uptake [1] | uptake (fluorescent intensities) [2] | targeting / fluorescence intensities [3] | targeting / fluorescence intensities [4]
CC1=CC(C)=[N+]2C1=Cc1ccc(CCCn3cc(CCNC(=O)/C=C/NC(=O)[C@H](O)C(C)(C)CO)nn3)n1[B-]2(F)F [Compound 124] | no significant uptake | highest uptake; also recorded: showed uptake |  | 
CC1=CC(C)=[N+]2C1=Cc1ccc(CCCn3cc(CCNC(=O)/C=C/NC(=O)[C@@H]4OC(C)(C)OCC4(C)C)nn3)n1[B-]2(F)F [Compound 125, (R,E)-N-((((3-[4,4-difluoro-5,7-dimethyl-4-bora-3a,4a-diaza-s-indacene-3-yl]propyl)-1H-1,2,3-triazol-4-yl)eth-ylamino)-3-oxoprop-1-enyl)-2,2,5,5-tetramethyl-1,3-dioxane-4-carboxamide] |  |  | showed targeting | showed targeting
